Laboratory results from patent US20140066365A1, “USE OF CALIXARENES ASSOCIATED WITH AN ANTIBIOTIC IN THE TREATMENT OF BACTERIAL INFECTIONS” (priority 2011, published 2014).
≈ marks a conversion by molar mass, not a printed value. Read-outs that look alike come from different tables or passages of the source.

Columns and labels:
[1] = tested on: MRSA strain having a resistance to the aminoglycosides and fluoroquinolones (SaR3); test: MIC of the compounds used alone, microdilution in a liquid medium (CLSI); format: cell-based, Staphylococcus aureus; details: Staphylococcus aureus, MRSA; antibiotic alone (second value of cell); SaR3; read-out: MIC
Excerpt: (§1) The MICs of the antibiotics were previously defined for each strain, by the method of microdilution in a liquid medium (CLSI (Clinical and Laboratory Standards Institute), 2003).

[2] = tested on: MRSA strain without associated resistance (SaR1); test: as above; format: cell-based, Staphylococcus aureus; details: Staphylococcus aureus, MRSA; antibiotic alone (second value of cell); SaR1; read-out: MIC
Excerpt: as §1

[3] = as above; format: cell-based, Staphylococcus aureus; details: Staphylococcus aureus, MRSA; antibiotic alone (second value of cell); SaR4; read-out: MIC
Excerpt: as §1

[4] = tested on: PaR2: Pseudomonas aeruginosa; format: cell-based; details: for Diameter: Table G1; for diameter in mm: Table G2; for CA-SFM Interpretation: Cd CA-SFM 2011; for CLSI Interpretation: Cd CLSI 2011; for Results: Table G1, against Dmin-Dmax
Procedure: (§2) The bacterial and antibiogramidentification is carried out by the VITEK 2 system (bioMérieux) and by the disk diffusion technique

[5] = tested on: PaR5: Pseudomonas aeruginosa; test: Antibiogram by the disk diffusion technique; format: cell-based; details: for Diameter / Results: Table I1; for diameter in mm: disk diffusion inhibition diameter, strain PaR5; for Results: against Dmin-Dmax; for CA-SFM Interpretation: versus critical diameter CA-SFM 2011; for CLSI Interpretation: versus critical diameter CLSI 2011
Procedure: as §2

[6] = tested on: PaR3: Pseudomonas aeruginosa; test: Antibiogram, MIC by the VITEK 2 system; format: cell-based; details: for CA-SFM Interpretation: Cc CA-SFM 2011; for CLSI Interpretation: Cc CLSI 2011; for EUCAST Interpretation: Cc EUCAST 2011
Procedure: (§3) The bacterial and antibiogramidentification is carried out by the VITEK 2 system (bioMérieux)

[7] = tested on: Pseudomonas aeruginosa strain PaR2; test: microbe, parasite or virus in culture; format: cell-based; details: antibiotic alone (second value of cell)
Excerpt: as §1

[8] = tested on: penicillinase-producing strain of Escherichia coli without associated resistance (EcR1); test: MIC of the compounds used alone, microdilution in a liquid medium (CLSI); format: cell-based; details: Escherichia coli, antibiotic alone (second value of cell), read-out: Initial MICs
Excerpt: as §1

[9] = tested on: cephalosporinase-hyperproducing strain of Escherichia coli (EcR2); test: as above; format: cell-based; details: Escherichia coli, antibiotic alone (second value of cell), read-out: Initial MICs
Excerpt: as §1

[10] = tested on: ESBL-producing strain of Escherichia coli, having an associated resistance to the aminoglycosides (EcR3); test: as above; format: cell-based; details: Escherichia coli, antibiotic alone (second value of cell), read-out: Initial MICs
Excerpt: as §1

[11] = tested on: mucoid strain of Pseudomonas aeruginosa PaR5; test: as above; format: cell-based; details: antibiotic alone (second value of cell)
Excerpt: as §1

[12] = tested on: Pseudomonas aeruginosa strain PaR3; test: as above; format: cell-based; details: antibiotic alone (second value of cell)
Excerpt: as §1

[13] = tested on: Escherichia coli strain ATCC 25922 (wild type); test: as above; format: cell-based; details: Escherichia coli, ATCC25922; antibiotic alone (second value of cell); E. coli ATCC 25922; read-out: Initial MICs
Excerpt: as §1

[14] = tested on: Staphylococcus aureus strain ATCC 29213 (wild type); test: as above; format: cell-based; details: Staphylococcus aureus, ATCC29213; antibiotic alone (second value of cell); S. aureus ATCC 29213; read-out: Initial MICs
Excerpt: as §1

[15] = tested on: Pseudomonas aeruginosa strain ATCC 27853 (wild type); test: as above; format: cell-based; details: antibiotic alone (second value of cell), P. aeruginosa ATCC 27853
Excerpt: as §1

[16] = tested on: EcR3: ESBL-Producing Escherichia coli; test: Antibiogram by the disk diffusion technique; format: cell-based; details: for Diameter: Table C1; for diameter in mm: Table C2; for CA-SFM Interpretation: Cd CA-SFM 2011; for Results: Table C1, against Dmin Dmax
Procedure: The bacterial and antibiogramidentification is carried out by the VITEK 2 system (bioMerieux) and by the disk diffusion technique

[17] = tested on: EcR2: Cephalosporinase-Hyperproducing Strain of Escherichia coli; test: Antibiogram, MIC by the VITEK 1 system; format: cell-based; details: Escherichia coli, read-out: MIC
Procedure: The bacterial and antibiogramidentification is carried out by the VITEK 1 system (bioMérieux) and by the disk diffusion technique

[18] = tested on: EcR1: Penicillinase-Producing Escherichia coli without Associated Resistance; test: Antibiogram, MIC by the VITEK 2 system; format: cell-based; details: for MIC: Escherichia coli
Procedure: (§4) 5.1 EcR1: Penicillinase-Producing Escherichia coli without Associated Resistance The bacterial and antibiogramidentification is carried out by the VITEK 2 system (bioMérieux) and by the disk diffusion technique.

[19] = tested on: EcR1: Penicillinase-Producing Escherichia coli without Associated Resistance; test: Antibiogram by the disk diffusion technique; format: cell-based; details: for MIC mg/L (diameter in mm): EcR1, cells that print a diameter, Table A2; for Diameter: EcR1, disk diffusion; for Diameter / Results: Table A1; for Results: EcR1, interpretation of the diameter against Dmin Dmax
Procedure: as §4

[20] = tested on: SaR4: Meticillin-Resistant Staphylococcus aureus; test: Antibiogram, MIC by the VITEK 2 system; format: cell-based; details: Staphylococcus aureus, SaR4, read-out: MIC
Procedure: as §2

[21] = tested on: SaR3: Meticillin-Resistant Staphylococcus aureus; test: Antibiogram by the disk diffusion technique; format: cell-based
Procedure: as §2

[22] = tested on: SaR1: Meticillin-Resistant Staphylococcus aureus without Associated Resistance; test: Antibiogram, MIC by the VITEK 2 system; format: cell-based; details: SaR1
Procedure: as §3

[23] = tested on: SaR1: Meticillin-Resistant Staphylococcus aureus without Associated Resistance; test: Antibiogram, inhibition diameter (Table D1); format: cell-based
Procedure: as §3

[24] = Pseudomonas aeruginosa, Table H2, read-out: MIC
[25] = Pseudomonas aeruginosa, read-out: MIC
[26] = Pseudomonas aeruginosa, ATCC27853, read-out: MIC
[27] = EcR1, Table A2, read-out: MIC mg/L (diameter in mm)
[28] = EcR1, VITEK 2, Table A1, read-out: MIC

With `C[C@@H](O)[C@H]1C(=O)N2C(C(=O)O)=C(SCCN=CN)C[C@H]12` [Imipenem] the MIC [1] was 0.25 µg/mL, the MIC [2] was 0.25 µg/mL and the MIC [3] was 2 µg/mL. For the same compound, the Diameter [4] was 27 mm, the diameter in mm [4] was 27 mm and the Diameter ([5]; PaR5) was 25 mm. The diameter in mm [5] was 25 mm, the MIC [6, 24] was at least 16 µg/mL and the MIC ([6]; Table H1) was “≧16”. For the same compound, the MIC [7, 25] was 2 µg/mL (≈ 6.68 µM), the MIC [8] was 0.125 µg/mL and the MIC [9] was 0.125 µg/mL. The MIC [10] was 0.125 µg/mL, the MIC [11, 25] was 2 µg/mL and the MIC [12, 25] was 32 µg/mL. The MIC [13] was 0.125 µg/mL, the MIC [14] was 0.015 µg/mL and the MIC [15, 26] was 2 µg/mL. The Diameter [16] was 27 mm, the diameter in mm [16] was 27 mm and the MIC ([17]; EcR2, VITEK 1, Table B1) was at most 4 µg/mL. For the same compound, the MIC ([17]; EcR2, Table B2, MIC) was at most 0.5 µg/mL, the MIC [18, 27] was at most 0.5 mg/L and the MIC [18, 28] was at most 1 mg/L.
In the case of Colimycin, the “MIC mg/L (diameter in mm)” value [19] is reported as 15 mm, the “CA-SFM Interpretation” value ([19]; EcR1, diameter against CA-SFM 2011 limits) is reported as “Susceptible” and the “EUCAST Interpretation” value ([19]; EcR1, diameter against EUCAST 2011 limits) is reported as “Resistant”. The Diameter [19] was 15 mm, the Results [19] was “Susceptible” and the “CA-SFM Interpretation” value [4] was “Susceptible”. The “CLSI Interpretation” value [4] was “Susceptible”, the Diameter [4] was 20 mm and the Results [4] was “Susceptible”. The diameter in mm [4] was 20 mm, the Diameter ([5]; PaR5) was 23 mm and the Results ([5]; PaR5) was “Susceptible”. The diameter in mm [5] was 23 mm, the “CA-SFM Interpretation” value ([5]; disk diffusion, PaR5) was “Susceptible” and the “CLSI Interpretation” value ([5]; disk diffusion, PaR5) was “Susceptible”. The “CA-SFM Interpretation” value [6] was “Susceptible”, the “CLSI Interpretation” value [6] was “Susceptible” and the “EUCAST Interpretation” value [6] was “Susceptible”. For the same compound, the MIC ([6]; Table H1) was “≦0.5”, the Results ([6]; Table H1) was “Susceptible” and the “MIC mg/L” value ([6]; Table H2) was “≦0.5 mg/L”. The “MIC” value [7] was 8 µg/mL, the “MIC” value [11] was 16 µg/mL and the “MIC” value [12] was 8 µg/mL. The “MIC” value [15] was 4 µg/mL, the “CA-SFM Interpretation” value [16] was “Susceptible” and the Diameter [16] was 16 mm. For the same compound, the Results [16] was “Susceptible” and the diameter in mm [16] was 16 mm.
In the case of `NCC[C@H](O)C(=O)N[C@@H]1C[C@H](N)[C@@H](O[C@H]2O[C@H](CN)[C@@H](O)[C@H](O)[C@H]2O)[C@H](O)[C@H]1O[C@H]1O[C@H](CO)[C@@H](O)[C@H](N)[C@H]1O` [Amikacin], the Diameter [19] is reported as 19 mm, the Results [19] is reported as “Susceptible” and the “CA-SFM Interpretation” value [4] is reported as “Susceptible”. For the same compound, the “CLSI Interpretation” value [4] was “Susceptible”, the “EUCAST Interpretation” value ([4]; Cd EUCAST 2011) was “Susceptible” and the Diameter [4] was 22 mm. The Results [4] was “Susceptible”, the diameter in mm [4] was 22 mm and the Diameter ([5]; PaR5) was 27 mm. For the same compound, the Results ([5]; PaR5) was “Susceptible”, the diameter in mm [5] was 27 mm and the “CA-SFM Interpretation” value ([5]; disk diffusion, PaR5) was “Susceptible”. The “CLSI Interpretation” value ([5]; disk diffusion, PaR5) was “Susceptible”, the “EUCAST Interpretation” value ([5]; disk diffusion, PaR5, versus critical diameter EUCAST 2011, for ** antibiotics the disk load differs and the EUCAST interpretation is not applicable) was “Susceptible” and the “CA-SFM Interpretation” value [6] was “Susceptible”. The “CLSI Interpretation” value [6] was “Susceptible”, the “EUCAST Interpretation” value [6] was “Susceptible” and the MIC [6, 24] was 4 µg/mL (≈ 6.83 µM). The MIC ([6]; Table H1) was 4 µg/mL (≈ 6.83 µM), the Results ([6]; Table H1) was “Susceptible” and the MIC [7, 25] was 1 µg/mL (≈ 1.71 µM). For the same compound, the MIC [8] was 0.25 µg/mL, the MIC [9] was 0.5 µg/mL and the MIC [10] was 1 µg/mL. It also gave an MIC [11, 25] of 0.5 µg/mL, an MIC [12, 25] of 1 µg/mL and an MIC [13] of 0.25 µg/mL. The MIC [14] was 1 µg/mL, the MIC [15, 26] was 0.5 µg/mL and the “CA-SFM Interpretation” value [16] was “Susceptible”. The “CLSI Interpretation” value ([16]; Cd CLSI 2011) was “Susceptible”, the “EUCAST Interpretation” value ([16]; Cd EUCAST 2011) was “Susceptible” and the Diameter [16] was 17 mm. The Results [16] was “Susceptible”, the diameter in mm [16] was 17 mm and the “CA-SFM Interpretation” value ([18]; EcR1, MIC against Cc CA-SFM 2011) was “Susceptible”. The “CLSI Interpretation” value ([18]; EcR1, MIC against Cc CLSI 2011) was “Susceptible”, the “EUCAST Interpretation” value ([18]; EcR1, MIC against Cc EUCAST 2011) was “Susceptible” and the Results ([18]; EcR1, interpretation of the MIC, Table A1) was “Susceptible”. For the same compound, the MIC [18, 27] was at most 2 mg/L and the MIC [18, 28] was at most 2 mg/L.
In the case of `CO[C@H]1/C=C/O[C@@]2(C)Oc3c(C)c(O)c4c(O)c(c(/C=N/N5CCN(C)CC5)c(O)c4c3C2=O)NC(=O)/C(C)=C\C=C\[C@H](C)[C@H](O)[C@@H](C)[C@@H](O)[C@@H](C)[C@H](OC(C)=O)[C@@H]1C` [Rifampicin], the MIC ([20]; Table F1) is reported as at most 1 µg/mL, the MIC ([20]; Table F2, MIC) is reported as at most 1 µg/mL and the “MIC mg/L (diameter in mm)” value [19] is reported as 16 mm. It also gave a Diameter [19] of 16 mm, a Diameter [4] of 25 mm and a diameter in mm [4] of 25 mm. For the same compound, the Diameter ([21]; Table E1) was 31 mm, the diameter in mm ([21]; Table E2) was 31 mm and the Diameter ([5]; PaR5) was 13 mm. The diameter in mm [5] was 13 mm, the “MIC mg/L” value ([22]; Table D2) was “≦0.5 mg/L” and the MIC ([22]; Staphylococcus aureus, Table D1, read-out: MIC) was at most 0.5 µg/mL. The MIC [7, 25] was 64 µg/mL (≈ 77.8 µM), the MIC [8] was 4 µg/mL and the MIC [9] was 2 µg/mL. The MIC [10] was 4 µg/mL, the MIC [11, 25] was 16 µg/mL and the MIC [12, 25] was 32 µg/mL. For the same compound, the MIC [13] was 4 µg/mL, the MIC [15, 26] was 64 µg/mL and the Diameter [16] was 15 mm. The diameter in mm [16] was 15 mm and the Diameter [23] was 30 mm.
